Laboratory results reported in patent US9351965B2, “Indazole derivatives useful as ERK inhibitors” (Merck Sharp & Dohme Corp., priority 2010, dated 2016).

Target: fully phosphorylated, active Mouse ERK2 protein (Mus musculus (Mouse), UniProt P63085)
Test: Active ERK2 (aERK) IMAP assay
Type: biochemical
Settings: IMAP fluorescence polarization; 30 μM ATP; 30 minute pre-incubation

Sequence of fully phosphorylated, active Mouse ERK2 protein (P63085 whole entry): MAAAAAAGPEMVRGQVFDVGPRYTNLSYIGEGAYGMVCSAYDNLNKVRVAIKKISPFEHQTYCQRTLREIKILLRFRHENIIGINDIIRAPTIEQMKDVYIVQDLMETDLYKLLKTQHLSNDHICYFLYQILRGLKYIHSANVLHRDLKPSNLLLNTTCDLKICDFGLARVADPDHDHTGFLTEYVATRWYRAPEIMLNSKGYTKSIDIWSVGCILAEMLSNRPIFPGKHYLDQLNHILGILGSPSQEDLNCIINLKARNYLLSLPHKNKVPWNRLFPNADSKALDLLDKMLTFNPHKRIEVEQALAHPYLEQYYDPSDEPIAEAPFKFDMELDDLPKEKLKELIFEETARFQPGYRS

| IC50 | SMILES |
| --- | --- |
| 32.2 nM | Cc1cc(-c2n[nH]c3ccc(C(=O)NN4CCC(CO)(Cc5ccccc5F)C4)cc23)ccn1 (stereo not shown) [compound 150, N-[3-[(2-fluorophenyl)methyl]-3-(hydroxymethyl)-1-pyrrolidinyl]-3-(2-methyl-4-pyridinyl)-1H-indazole-5-carboxamide] |
| 193 nM | Cc1cc(-c2n[nH]c3ccc(C(=O)NN4CCCC(CO)(Cc5ccccc5F)C4)cc23)ccn1 (stereo not shown) [compound 151, N-[3-[(2-fluorophenyl)methyl]-3-(hydroxymethyl)-1-piperidinyl]-3-(2-methyl-4-pyridinyl)-1H-indazole-5-carboxamide] |
| 514 nM | Cc1cc(-c2n[nH]c3ccc(C(=O)NC4CCCC(N)(Cc5ccccc5F)C4)cc23)ccn1 (stereo not shown) [compound 152, N-[3-amino-3-[(2-fluorophenyl)methyl]cyclohexyl]-3-(2-methyl-4-pyridinyl)-1H-indazole-5-carboxamide] |
| 162 nM | Cc1cc(-c2n[nH]c3ccc(C(=O)NC4CCCC(Cc5ccccc5F)(NC=O)C4)cc23)ccn1 (stereo not shown) [compound 153, N-[3-[(2-fluorophenyl)methyl]-3-(formylamino)cyclohexyl]-3-(2-methyl-4-pyridinyl)-1H-indazole-5-carboxamide] |
